# Source: patent US6355799B1, “Substituted benzene compounds, process for their preparation, and herbicidal and defoliant compositions containing them” (ISK Americas Incorporated, priority 1997, dated 2002)
# Key:
# Type in all cases: in vivo
# [1] = system: redroot pigweed (Amaranthus retroflexus, AMARE); test: Pre-emerge test, greenhouse herbicide activity screening; conditions: rated 14 days after application, 0 = no damage, 100 = complete death
# How it was run: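 Visual ratings on a 0-100 scale (0 no damage, 100 all plants dead) were taken at 14 days after treatment. Rates of 15-1000 g ai/ha in acetone, 187 l/ha, were sprayed onto soil one day after planting (pre-emerge) or onto 2-3 leaf plants with 0.25% v/v surfactant (post-emerge).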
# [2] = system: common ragweed (Ambrosia artemisizfolia L., AMBEL); test: as above; conditions: rated 14 days after application, 0 = no damage, 100 = complete death
# How it was run: (§1)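 Plants grown in 10 cm pots of sandy loam mix received acetone-dissolved compounds through a moving flat-fan nozzle. Doses ranged from 15 to 1000 g ai/ha. Pre-emerge pots were seeded one day earlier, post-emerge pots 8–21 days earlier. Fourteen days on, each pot was graded 0–100 for damage.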
# [3] = system: green foxtail (Setaria viridis, SETVI); test: as above; conditions: rated 14 days after application, 0 = no damage, 100 = complete death
# How it was run: as §1
# [4] = system: sicklepod (Cassia obtusifolia, CASOB); test: as above; conditions: rated 14 days after application, 0 = no damage, 100 = complete death
# How it was run: as §1
# [5] = system: johnsongrass (Sorghum halepense, SORHA); test: as above; conditions: rated 14 days after application, 0 = no damage, 100 = complete death
# How it was run: as §1
# [6] = system: lambsquarters (Chenopodium album, CHEAL); test: as above; conditions: rated 14 days after application, 0 = no damage, 100 = complete death
# How it was run: as §1
# [7] = system: ivyleaf morningglory (Ipomoea hederacea, IPOHE); test: as above; conditions: rated 14 days after application, 0 = no damage, 100 = complete death
# How it was run: as §1
# [8] = system: barnyardgrass (Echinochloa crus-galli, ECHCG); test: as above; conditions: rated 14 days after application, 0 = no damage, 100 = complete death
# How it was run: as §1
# [9] = system: large crabgrass (Digitaria sanguinalis, DIGSA); test: as above; conditions: rated 14 days after application, 0 = no damage, 100 = complete death
# How it was run: as §1
# [10] = system: velvetleaf (Abutilon theophrasti, ABUTH); test: as above; conditions: rated 14 days after application, 0 = no damage, 100 = complete death
# How it was run: as §1
# [11] = system: redroot pigweed (Amaranthus retroflexus, AMARE); test: Post-emerge test, greenhouse herbicide activity screening; conditions: 14 days after application; for phytotoxicity rating AMARE: post-emerge, rating scale 0-100
# How it was run: as §1
# [12] = system: common ragweed (Ambrosia artemisizfolia L., AMBEL); test: as above; conditions: 14 days after application; for phytotoxicity rating AMBEL: post-emerge, rating scale 0-100
# How it was run: as §1
# [13] = system: green foxtail (Setaria viridis, SETVI); test: as above; conditions: 14 days after application; for phytotoxicity rating SETVI: post-emerge, rating scale 0-100
# How it was run: as §1
# [14] = system: sicklepod (Cassia obtusifolia, CASOB); test: as above; conditions: 14 days after application; for phytotoxicity rating CASOB: post-emerge, rating scale 0-100
# How it was run: as §1
# [15] = system: johnsongrass (Sorghum halepense, SORHA); test: as above; conditions: 14 days after application; for phytotoxicity rating SORHA: post-emerge, rating scale 0-100
# How it was run: as §1
# [16] = system: lambsquarters (Chenopodium album, CHEAL); test: as above; conditions: 14 days after application; for phytotoxicity rating CHEAL: post-emerge, rating scale 0-100
# How it was run: as §1
# [17] = system: ivyleaf morningglory (Ipomoea hederacea, IPOHE); test: as above; conditions: 14 days after application; for phytotoxicity rating IPOHE: post-emerge, rating scale 0-100
# How it was run: as §1
# [18] = system: barnyardgrass (Echinochloa crus-galli, ECHCG); test: as above; conditions: 14 days after application; for phytotoxicity rating ECHCG: post-emerge, rating scale 0-100
# How it was run: as §1
# [19] = system: large crabgrass (Digitaria sanguinalis, DIGSA); test: as above; conditions: 14 days after application; for phytotoxicity rating DIGSA: post-emerge, rating scale 0-100
# How it was run: as §1
# [20] = system: velvetleaf (Abutilon theophrasti, ABUTH); test: as above; conditions: 14 days after application; for phytotoxicity rating ABUTH: post-emerge, rating scale 0-100
# How it was run: as §1
# [21] = system: field corn (Zea mays L., var. Dekalb 535, CORN); test: Post-emerge test, crop safety; conditions: 14 days after application; for phytotoxicity rating CORN: post-emerge, rating scale 0-100
# How it was run: (§2)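 Each test used a mechanized track sprayer delivering 187 l/ha of acetone solution at 15–1000 g ai/ha. Post-emerge foliage at 2–3 leaves was treated with added 0.25% v/v non-ionic surfactant and bottom-watered only. Injury was assessed on day 14, where 100 means total kill.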
# [22] = system: upland rice (Oryza sp., var. Tebonnet, RICE); test: Post-emerge test, crop safety; conditions: 14 days after application; for phytotoxicity rating RICE: post-emerge, rating scale 0-100
# How it was run: as §2
# [23] = system: field corn (Zea mays L., var. Dekalb 535, CORN); test: Pre-emerge test, crop safety; conditions: rated 14 days after application, 0 = no damage, 100 = complete death
# How it was run: (§3)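 Compounds in acetone were track-sprayed at 187 l/ha, 15–1000 g ai/ha, onto sandy loam pots. Pre-emerge seeds were sown one day before spraying, with surface watering afterwards. Post-emerge plants were at the 2–3 leaf stage and sprayed with 0.25% v/v non-ionic surfactant. Injury was rated 0–100 at 14 days.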
# [24] = system: upland rice (Oryza sp., var. Tebonnet, RICE); test: Pre-emerge test, crop safety; conditions: rated 14 days after application, 0 = no damage, 100 = complete death
# How it was run: as §3
# [25] = 63 g ai/ha, phytotoxicity rating 0-100 (0 no damage, 100 complete death)
compound,measurement,setting,value
COc1c(Cl)cc(F)c(-n2c(=O)cc(C(F)(F)F)n(C)c2=O)c1NC(=O)c1ccc(Cl)cc1Cl [2-58],"Pre-emerge Herbicidal Activity, phytotoxicity rating (0-100), AMARE",[1]; 63 g ai/ha,100
same,"Pre-emerge Herbicidal Activity, phytotoxicity rating (0-100), AMARE",[1]; 250 g ai/ha,100
same,"Pre-emerge Herbicidal Activity, phytotoxicity rating (0-100), AMBEL",[2]; 63 g ai/ha,50
same,"Pre-emerge Herbicidal Activity, phytotoxicity rating (0-100), AMBEL",[2]; 250 g ai/ha,100
same,"Pre-emerge Herbicidal Activity, phytotoxicity rating (0-100), SETVI",[3]; 63 g ai/ha,100
same,"Pre-emerge Herbicidal Activity, phytotoxicity rating (0-100), SETVI",[3]; 250 g ai/ha,100
same,"Pre-emerge Herbicidal Activity, phytotoxicity rating (0-100), CASOB",[4]; 63 g ai/ha,30
same,"Pre-emerge Herbicidal Activity, phytotoxicity rating (0-100), CASOB",[4]; 250 g ai/ha,99
same,"Pre-emerge Herbicidal Activity, phytotoxicity rating (0-100), SORHA",[5]; 63 g ai/ha,70
same,"Pre-emerge Herbicidal Activity, phytotoxicity rating (0-100), SORHA",[5]; 250 g ai/ha,100
same,"Pre-emerge Herbicidal Activity, phytotoxicity rating (0-100), CHEAL",[6]; 63 g ai/ha,100
same,"Pre-emerge Herbicidal Activity, phytotoxicity rating (0-100), CHEAL",[6]; 250 g ai/ha,100
same,"Pre-emerge Herbicidal Activity, phytotoxicity rating (0-100), IPOHE",[7]; 63 g ai/ha,20
same,"Pre-emerge Herbicidal Activity, phytotoxicity rating (0-100), IPOHE",[7]; 250 g ai/ha,100
same,"Pre-emerge Herbicidal Activity, phytotoxicity rating (0-100), ECHCG",[8]; 63 g ai/ha,50
same,"Pre-emerge Herbicidal Activity, phytotoxicity rating (0-100), ECHCG",[8]; 250 g ai/ha,100
same,"Pre-emerge Herbicidal Activity, phytotoxicity rating (0-100), DIGSA",[9]; 63 g ai/ha,90
same,"Pre-emerge Herbicidal Activity, phytotoxicity rating (0-100), DIGSA",[9]; 250 g ai/ha,100
same,"Pre-emerge Herbicidal Activity, phytotoxicity rating (0-100), ABUTH",[10]; 63 g ai/ha,100
same,"Pre-emerge Herbicidal Activity, phytotoxicity rating (0-100), ABUTH",[10]; 250 g ai/ha,100
same,phytotoxicity rating AMARE,[11]; 63 g ai/ha,100
same,phytotoxicity rating AMARE,[11]; 250 g ai/ha,100
same,phytotoxicity rating AMBEL,[12]; 63 g ai/ha,100
same,phytotoxicity rating AMBEL,[12]; 250 g ai/ha,100
same,phytotoxicity rating SETVI,[13]; 63 g ai/ha,50
same,phytotoxicity rating SETVI,[13]; 250 g ai/ha,60
same,phytotoxicity rating CASOB,[14]; 63 g ai/ha,100
same,phytotoxicity rating CASOB,[14]; 250 g ai/ha,100
same,phytotoxicity rating SORHA,[15]; 63 g ai/ha,20
same,phytotoxicity rating SORHA,[15]; 250 g ai/ha,90
same,phytotoxicity rating CHEAL,[16]; 63 g ai/ha,100
same,phytotoxicity rating CHEAL,[16]; 250 g ai/ha,100
same,phytotoxicity rating IPOHE,[17]; 63 g ai/ha,95
same,phytotoxicity rating IPOHE,[17]; 250 g ai/ha,100
same,phytotoxicity rating ECHCG,[18]; 63 g ai/ha,20
same,phytotoxicity rating ECHCG,[18]; 250 g ai/ha,90
same,phytotoxicity rating DIGSA,[19]; 63 g ai/ha,10
same,phytotoxicity rating DIGSA,[19]; 250 g ai/ha,40
same,phytotoxicity rating ABUTH,[20]; 63 g ai/ha,100
same,phytotoxicity rating ABUTH,[20]; 250 g ai/ha,100
same,phytotoxicity rating CORN,[21]; 63 g ai/ha,40
same,phytotoxicity rating CORN,[21]; 250 g ai/ha,90
same,phytotoxicity rating RICE,[22]; 63 g ai/ha,50
same,phytotoxicity rating RICE,[22]; 250 g ai/ha,85
same,"Pre-emerge phytotoxicity rating (0-100), crop damage, CORN",[23]; 63 g ai/ha,40
same,"Pre-emerge phytotoxicity rating (0-100), crop damage, CORN",[23]; 250 g ai/ha,95
same,"Pre-emerge phytotoxicity rating (0-100), crop damage, RICE",[24]; 63 g ai/ha,80
same,"Pre-emerge phytotoxicity rating (0-100), crop damage, RICE",[24]; 250 g ai/ha,95
COc1c(Cl)cc(F)c(-n2c(=O)c([N+](=O)[O-])c(C(F)(F)F)n(C)c2=O)c1[N+](=O)[O-] [Compound 1-9],"Pre-emerge Herbicidal Activity AMARE (phytotoxicity rating, scale 0-100)","[1]; 63 g ai/ha, pre-emerge",100
same,"Pre-emerge Herbicidal Activity AMBEL (phytotoxicity rating, scale 0-100)","[2]; 63 g ai/ha, pre-emerge",100
same,"Pre-emerge Herbicidal Activity SETVI (phytotoxicity rating, scale 0-100)","[3]; 63 g ai/ha, pre-emerge",100
same,"Pre-emerge Herbicidal Activity CASOB (phytotoxicity rating, scale 0-100)","[4]; 63 g ai/ha, pre-emerge",100
same,"Pre-emerge Herbicidal Activity SORHA (phytotoxicity rating, scale 0-100)","[5]; 63 g ai/ha, pre-emerge",100
same,"Pre-emerge Herbicidal Activity CHEAL (phytotoxicity rating, scale 0-100)","[6]; 63 g ai/ha, pre-emerge",100
same,"Pre-emerge Herbicidal Activity IPOHE (phytotoxicity rating, scale 0-100)","[7]; 63 g ai/ha, pre-emerge",100
same,"Pre-emerge Herbicidal Activity ECHCG (phytotoxicity rating, scale 0-100)","[8]; 63 g ai/ha, pre-emerge",100
same,"Pre-emerge Herbicidal Activity DIGSA (phytotoxicity rating, scale 0-100)","[9]; 63 g ai/ha, pre-emerge",100
same,"Pre-emerge Herbicidal Activity ABUTH (phytotoxicity rating, scale 0-100)","[10]; 63 g ai/ha, pre-emerge",100
same,Post-emerge Herbicidal Activity AMARE,[11]; [25],100
same,Post-emerge Herbicidal Activity AMBEL,[12]; [25],90
same,Post-emerge Herbicidal Activity SETVI,[13]; [25],90
same,Post-emerge Herbicidal Activity CASOB,[14]; [25],90
same,Post-emerge Herbicidal Activity SORHA,[15]; [25],90
same,Post-emerge Herbicidal Activity CHEAL,[16]; [25],100
same,Post-emerge Herbicidal Activity IPOHE,[17]; [25],100
same,Post-emerge Herbicidal Activity ECHCG,[18]; [25],70
same,Post-emerge Herbicidal Activity DIGSA,[19]; [25],90
same,Post-emerge Herbicidal Activity ABUTH,[20]; [25],100
same,Post-emerge Herbicidal Activity CORN (crop damage),[21]; [25],30
same,Post-emerge Herbicidal Activity RICE (crop damage),[22]; [25],40
same,"Pre-emerge crop damage CORN (phytotoxicity rating, scale 0-100)","[23]; 63 g ai/ha, pre-emerge",90
same,"Pre-emerge crop damage RICE (phytotoxicity rating, scale 0-100)","[24]; 63 g ai/ha, pre-emerge",95
